Measured values: patent US11685732B2, “MYST family histone acetyltransferase inhibitors” (Epizyme, Inc., priority 2017, dated 2023)
Where two headings read alike, the source gives them in different places.

Columns and labels:
KAT-6A = KAT-6A (Homo sapiens (Human), UniProt Q92794); test: KAT-6A biochemical inhibition assay (SAMDI mass spectrometry)
Experimental: (§1) KAT-6A. Enzyme assay buffer was 50 mM Tris pH 8.0, 0.002% Tween20, 0.005% bovine skin gelatin, and 1 mM dithiothreitol (DTT). For determination of IC50 values, compounds were serially diluted with 2% (v/v) DMSO in the final reaction, pre-incubating each dilution of each compound with 40 μL of assay buffer containing KAT-6A enzyme (12.5 nM final concentration). 10 μL of assay buffer containing 1 μM peptide substrate and 1 μM acetyl coenzyme A (final concentrations) was added. Reactions (50 μL total) were then carried out at 25° C. for 90 minutes. Reactions were terminated by the addition of 0.5% formic acid (final concentration), and a sample of each reaction was analyzed by SAMDI Tech, Inc. (Chicago, Ill.) using self-assembled monolayer desorption/ionization time-of-flight mass spectrometry (Mrksich, M. (2008) Mass spectrometry of self-assembled monolayers: a new tool for molecular surface science. ACS Nano 2, 7-18).

KAT-8 = KAT-8 (Homo sapiens (Human), UniProt Q9H7Z6); test: KAT-8 biochemical inhibition assay (SAMDI mass spectrometry)
Chain of KAT-8 (Q9H7Z6 other isoform, or with tags, fused parts or gaps): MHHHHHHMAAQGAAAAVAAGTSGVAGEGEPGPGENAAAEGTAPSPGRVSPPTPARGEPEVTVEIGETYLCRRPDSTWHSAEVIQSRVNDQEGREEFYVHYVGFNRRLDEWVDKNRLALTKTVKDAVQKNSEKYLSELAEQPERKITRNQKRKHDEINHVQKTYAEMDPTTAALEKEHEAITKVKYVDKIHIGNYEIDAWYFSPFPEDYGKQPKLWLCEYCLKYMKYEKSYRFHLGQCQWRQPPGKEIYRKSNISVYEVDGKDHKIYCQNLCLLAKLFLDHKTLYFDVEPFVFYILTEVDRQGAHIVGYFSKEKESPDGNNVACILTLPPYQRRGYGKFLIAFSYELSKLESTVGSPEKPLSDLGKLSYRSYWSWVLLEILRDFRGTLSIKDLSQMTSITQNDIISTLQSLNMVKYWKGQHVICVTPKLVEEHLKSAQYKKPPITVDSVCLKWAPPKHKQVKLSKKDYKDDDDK
Experimental: as §1, with “KAT-8. Enzyme assay” for “KAT-6A. Enzyme assay”, “buffer containing KAT-8 enzyme (12.5” for “buffer containing KAT-6A enzyme (12.5”, “substrate and 5 μM acetyl” for “substrate and 1 μM acetyl”

KAT-5 = KAT-5 (Homo sapiens (Human), UniProt Q92993); test: KAT-5 biochemical inhibition assay (SAMDI mass spectrometry)
Chain of KAT-5 (Q92993 other isoform, or with tags, fused parts or gaps): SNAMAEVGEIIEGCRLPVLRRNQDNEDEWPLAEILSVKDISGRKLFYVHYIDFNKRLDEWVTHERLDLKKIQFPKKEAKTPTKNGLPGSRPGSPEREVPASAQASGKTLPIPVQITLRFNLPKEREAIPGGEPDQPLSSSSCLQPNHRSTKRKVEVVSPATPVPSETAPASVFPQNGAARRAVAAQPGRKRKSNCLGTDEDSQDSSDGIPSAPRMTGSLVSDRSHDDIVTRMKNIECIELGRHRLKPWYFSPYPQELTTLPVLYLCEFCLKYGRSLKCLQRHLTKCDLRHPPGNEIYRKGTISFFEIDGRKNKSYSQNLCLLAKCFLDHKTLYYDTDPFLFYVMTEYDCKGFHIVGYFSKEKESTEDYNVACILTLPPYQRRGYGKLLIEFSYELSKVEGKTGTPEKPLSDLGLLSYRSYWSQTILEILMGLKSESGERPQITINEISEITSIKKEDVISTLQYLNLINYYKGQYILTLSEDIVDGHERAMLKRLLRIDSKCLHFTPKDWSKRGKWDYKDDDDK
Experimental: as §1, with “KAT-5. Enzyme assay” for “KAT-6A. Enzyme assay”, “buffer containing KAT-5 enzyme (9” for “buffer containing KAT-6A enzyme (12.5”, “KAT-5 enzyme (9 nM final” for “KAT-6A enzyme (12.5 nM final”, “substrate and 0.5 μM acetyl” for “substrate and 1 μM acetyl”

KAT-7 = KAT-7 (Homo sapiens (Human), UniProt O95251); test: KAT-7 biochemical inhibition assay (SAMDI mass spectrometry)
Chain of KAT-7 (O95251 other isoform, or with tags, fused parts or gaps): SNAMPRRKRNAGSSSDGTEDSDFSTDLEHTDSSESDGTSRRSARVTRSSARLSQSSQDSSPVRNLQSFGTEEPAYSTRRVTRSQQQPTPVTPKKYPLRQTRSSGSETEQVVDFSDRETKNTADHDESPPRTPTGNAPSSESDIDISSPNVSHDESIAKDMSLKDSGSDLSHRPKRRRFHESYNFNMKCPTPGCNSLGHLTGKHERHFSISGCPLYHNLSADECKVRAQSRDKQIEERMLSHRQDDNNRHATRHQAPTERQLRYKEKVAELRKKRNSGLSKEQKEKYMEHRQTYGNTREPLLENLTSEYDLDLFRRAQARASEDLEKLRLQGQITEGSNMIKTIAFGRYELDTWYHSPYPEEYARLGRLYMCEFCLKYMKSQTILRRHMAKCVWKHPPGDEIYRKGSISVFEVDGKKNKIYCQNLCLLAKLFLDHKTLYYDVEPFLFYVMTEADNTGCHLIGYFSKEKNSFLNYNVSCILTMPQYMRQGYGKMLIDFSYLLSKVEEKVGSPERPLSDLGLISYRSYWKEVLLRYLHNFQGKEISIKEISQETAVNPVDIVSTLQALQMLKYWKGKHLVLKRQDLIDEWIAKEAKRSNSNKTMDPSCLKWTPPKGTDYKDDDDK
Experimental: as §1, with “KAT-7. Enzyme assay” for “KAT-6A. Enzyme assay”, “buffer containing KAT-7 enzyme (6” for “buffer containing KAT-6A enzyme (12.5”, “KAT-7 enzyme (6 nM final” for “KAT-6A enzyme (12.5 nM final”, “substrate and 2 μM acetyl” for “substrate and 1 μM acetyl”, “C. for 120 minutes. Reactions” for “C. for 90 minutes. Reactions”

Chain of KAT-6A (Q92794 other isoform, or with tags, fused parts or gaps): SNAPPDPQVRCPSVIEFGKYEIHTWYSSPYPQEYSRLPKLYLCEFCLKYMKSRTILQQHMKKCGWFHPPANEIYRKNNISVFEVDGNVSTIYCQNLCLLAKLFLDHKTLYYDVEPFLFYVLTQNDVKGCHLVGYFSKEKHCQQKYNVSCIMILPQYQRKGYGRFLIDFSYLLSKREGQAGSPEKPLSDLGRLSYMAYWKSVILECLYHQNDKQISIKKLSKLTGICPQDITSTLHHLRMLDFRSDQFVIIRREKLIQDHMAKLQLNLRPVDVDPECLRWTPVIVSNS

Row | Compound | IC50 (KAT-6A; Table 6, comparative compounds) | IC50 (KAT-8; Table 6, comparative compounds) | IC50 (KAT-5; Table 6, comparative compounds) | IC50 (KAT-7; Table 6, comparative compounds) | IC50 (KAT-6A) | IC50 (KAT-8) | IC50 (KAT-5) | IC50 (KAT-7)
1 | Cc1cc(-c2ccccc2)cc(C(=O)NNS(=O)(=O)CC2CCCN(C(=O)OC(C)(C)C)C2)c1F (single isomer, unassigned) [B, reference compound] | ≤ 10 µM | 50 to 100 µM | ≤ 10 µM | ≤ 10 µM | – | – | – | –
2 | Cc1cc(-c2ccccc2)cc(C(=O)NNS(=O)(=O)CC2CCCN(C(=O)OC(C)(C)C)C2)c1F (single isomer, unassigned) [C, reference compound] | ≤ 10 µM | > 100 µM | ≤ 10 µM | 10 to 50 µM | – | – | – | –
3 | O=C(NNS(=O)(=O)CC1CCCNC1)c1cc(-c2ccccc2)cc(Cl)c1F (stereo not drawn) [A, reference compound] | 10 to 50 µM | > 100 µM | 10 to 50 µM | 50 to 100 µM | – | – | – | –
4 | Cn1cnc(-c2cc(Cl)c(F)c(C(=O)NNS(=O)(=O)CC3CCOCC3)c2)c1 [Compound I-1] | – | – | – | – | < 10 µM | > 100 µM | < 10 µM | < 10 µM
5 | Cn1cnc(-c2cc(Cl)c(F)c(C(=O)NNS(=O)(=O)C3CCCCC3)c2)c1 [Compound I-2] | – | – | – | – | < 10 µM | 10 to 50 µM | < 10 µM | < 10 µM
6 | Cn1cnc(-c2cc(Cl)c(F)c(C(=O)NNS(=O)(=O)C3CCN(C(=O)OC(C)(C)C)CC3)c2)c1 [Compound I-3] | – | – | – | – | < 10 µM | > 100 µM | < 10 µM | < 10 µM
7 | Cn1ccc(-c2cc(Cl)c(F)c(C(=O)NNS(=O)(=O)CC3CCCCC3)c2)n1 [Compound I-4] | – | – | – | – | < 10 µM | 50 to 100 µM | < 10 µM | < 10 µM
8 | O=C(NNS(=O)(=O)CC1CCCCC1)c1cc(-c2ccccn2)cc(Cl)c1F [Compound I-5] | – | – | – | – | < 10 µM | > 100 µM | < 10 µM | < 10 µM
9 | Cn1ccc(-c2cc(Cl)c(F)c(C(=O)NNS(=O)(=O)CC3CCOCC3)c2)n1 [Compound I-6] | – | – | – | – | < 10 µM | > 100 µM | 10 to 50 µM | 10 to 50 µM
10 | Cn1cnc(-c2cc(Cl)c(F)c(C(=O)NNS(=O)(=O)CC3CCCNC3)c2)c1 (stereo not drawn) [Compound I-7] | – | – | – | – | 50 to 100 µM | > 100 µM | 10 to 50 µM | < 10 µM
11 | Cn1cc(-c2cc(Cl)c(F)c(C(=O)NNS(=O)(=O)C3CCOCC3)c2)nc1Cl [Compound I-8] | – | – | – | – | 10 to 50 µM | > 100 µM | > 100 µM | 10 to 50 µM
12 | Cn1cnc(-c2cc(Cl)c(F)c(C(=O)NNS(=O)(=O)C3CCOCC3)c2)c1 [Compound I-9] | – | – | – | – | 10 to 50 µM | > 100 µM | 10 to 50 µM | < 10 µM
13 | CC(=O)N1CCCC(CS(=O)(=O)NNC(=O)c2cc(-c3cn(C)cn3)cc(Cl)c2F)C1 (stereo not drawn) [Compound I-10] | – | – | – | – | < 10 µM | > 100 µM | < 10 µM | < 10 µM
14 | Cn1c(Cl)nc(-c2cc(Cl)c(F)c(C(=O)NNS(=O)(=O)C3CCOCC3)c2)c1Cl [Compound I-11] | – | – | – | – | 10 to 50 µM | > 100 µM | 50 to 100 µM | 50 to 100 µM
15 | Cn1cnc(-c2cc(Cl)c(F)c(C(=O)NNS(=O)(=O)C3CCC3)c2)c1 [Compound I-12] | – | – | – | – | 50 to 100 µM | > 100 µM | 50 to 100 µM | < 10 µM
16 | Cn1cnc(-c2cc(Cl)c(F)c(C(=O)NNS(=O)(=O)CC3CCCN(C(=O)C4CCC4)C3)c2)c1 (stereo not drawn) [Compound I-13] | – | – | – | – | < 10 µM | > 100 µM | < 10 µM | < 10 µM
17 | CC(C)S(=O)(=O)NNC(=O)c1cc(-c2cn(C)cn2)cc(Cl)c1F [Compound I-14] | – | – | – | – | > 100 µM | > 100 µM | 50 to 100 µM | 10 to 50 µM
18 | Cn1cnc(-c2cc(Cl)c(F)c(C(=O)NNS(=O)(=O)C3CCCC3)c2)c1 [Compound I-15] | – | – | – | – | 50 to 100 µM | > 100 µM | 10 to 50 µM | < 10 µM
19 | Cc1c(-c2cc(Cl)c(F)c(C(=O)NNS(=O)(=O)CC3CCCCC3)c2)ncn1C [Compound I-38] | – | – | – | – | – | > 100 µM | < 10 µM | < 10 µM

Row | Compound | IC50 (KAT-6A; Table 6, comparative compounds) | IC50 (KAT-8; Table 6, comparative compounds) | IC50 (KAT-5; Table 6, comparative compounds) | IC50 (KAT-7; Table 6, comparative compounds) | IC50 (KAT-6A) | IC50 (KAT-8) | IC50 (KAT-5) | IC50 (KAT-7)
20 | CC(C)S(=O)(=O)N1CCCC(CS(=O)(=O)NNC(=O)c2cc(-c3cn(C)cn3)cc(Cl)c2F)C1 (stereo not drawn) [Compound I-98] | – | – | – | – | – | 10 to 50 µM | < 10 µM | < 10 µM
21 | CC(=O)NC1CCCC(CS(=O)(=O)NNC(=O)c2cc(-c3cn(C)cn3)cc(Cl)c2F)C1 (stereo not drawn) [Compound I-99] | – | – | – | – | – | 10 to 50 µM | < 10 µM | < 10 µM
22 | CCNC(=O)N1C[C@H](CS(=O)(=O)NNC(=O)c2cc(-c3cn(C)cn3)cc(Cl)c2F)[C@@H](C)C1 [Compound I-271] | – | – | – | – | 10 to 50 µM | 10 to 50 µM | 10 to 50 µM | –
23 | Cn1cnc(-c2cc(Cl)c(F)c(C(=O)NNS(=O)(=O)CC3CCOC3)c2)c1 (stereo not drawn) [Compound I-272] | – | – | – | – | < 10 µM | 10 to 50 µM | < 10 µM | –
24 | Cn1cnc(-c2cc(Cl)c(F)c(C(=O)NNS(=O)(=O)CC3CCCOC3)c2)c1 (stereo not drawn) [Compound I-273] | – | – | – | – | < 10 µM | 10 to 50 µM | < 10 µM | –
25 | CN(C(=O)OC(C)(C)C)C1CCCC(CS(=O)(=O)NNC(=O)c2cc(-c3cn(C)cn3)cc(Cl)c2F)C1 (stereo not drawn) [Compound I-274] | – | – | – | – | < 10 µM | 10 to 50 µM | < 10 µM | –
26 | Cn1cnc(-c2cc(Cl)c(F)c(C(=O)NNS(=O)(=O)CC34CC5CC(CC(C5)C3)C4)c2)c1 [Compound I-275] | – | – | – | – | < 10 µM | 10 to 50 µM | < 10 µM | –
27 | Cn1cnc(-c2cc(Cl)c(F)c(C(=O)NNS(=O)(=O)CC3CCCO3)c2)c1 (stereo not drawn) [Compound I-276] | – | – | – | – | < 10 µM | 10 to 50 µM | < 10 µM | –
28 | CC(=O)N1[C@H]2CC[C@@H](CS(=O)(=O)NNC(=O)c3cc(-c4cn(C)cn4)cc(Cl)c3F)[C@@H]1CC2 [Compound I-277] | – | – | – | – | < 10 µM | 10 to 50 µM | < 10 µM | –
29 | COC1CCC(CS(=O)(=O)NNC(=O)c2cc(-c3cn(C)cn3)cc(Cl)c2F)CC1 (stereo not drawn) [Compound I-278] | – | – | – | – | < 10 µM | 10 to 50 µM | < 10 µM | –
30 | Cn1cnc(-c2cc(Cl)c(F)c(C(=O)NNS(=O)(=O)CC3CCCCO3)c2)c1 (stereo not drawn) [Compound I-279] | – | – | – | – | < 10 µM | 10 to 50 µM | < 10 µM | –
31 | CN(C(=O)OC(C)(C)C)C1CC(CS(=O)(=O)NNC(=O)c2cc(-c3cn(C)cn3)cc(Cl)c2F)C1 (stereo not drawn) [Compound I-390] | – | – | – | – | 10 to 50 µM | > 100 µM | < 10 µM | –
32 | Cn1cnc(-c2cc(Cl)c(F)c(C(=O)NNS(=O)(=O)c3cccc(O)n3)c2)c1 [Compound I-391] | – | – | – | – | < 10 µM | 50 to 100 µM | < 10 µM | –
33 | Cn1cnc(-c2cc(Cl)c(F)c(C(=O)NNS(=O)(=O)c3cccc(N)n3)c2)c1 [Compound I-392] | – | – | – | – | < 10 µM | > 100 µM | < 10 µM | –
34 | Cn1cnc(-c2cc(Cl)c(F)c(C(=O)NNS(=O)(=O)c3cccc(NCc4ccccc4)n3)c2)c1 [Compound I-393] | – | – | – | – | < 10 µM | > 100 µM | < 10 µM | –
35 | CN(CCOc1ccc(S(=O)(=O)NNC(=O)c2cc(-c3cn(C)cn3)cc(Cl)c2F)cc1)C(=O)OC(C)(C)C [Compound I-394] | – | – | – | – | 10 to 50 µM | > 100 µM | 10 to 50 µM | –
36 | CNC1CC(CS(=O)(=O)NNC(=O)c2cc(-c3cn(C)cn3)cc(Cl)c2F)C1 (stereo not drawn) [Compound I-395] | – | – | – | – | 10 to 50 µM | > 100 µM | 10 to 50 µM | –
37 | Cn1cnc(-c2cc(Cl)c(F)c(C(=O)NNS(=O)(=O)CC3CCC(C)(C)CC3)c2)c1 [Compound I-396] | – | – | – | – | < 10 µM | 10 to 50 µM | < 10 µM | –
